Legend:
Format in all cases: biochemical
JAK1 = JAK1 (Homo sapiens, UniProt P23458); test: experiment of inhibiting kinase activity (Caliper mobility shift assay), JAK1; settings: read-out: inhibition rate JAK1; for inhibition at 0.01 µM: at 10 nM
Description: (§1) The inhibition rates of tested compounds on JAK1, JAK2, JAK3, TYK2, CDK7, CDK9, EGFR (T790M) and LRRK2 kinases were measured. The test concentrations of the compounds were 10 nM and 100 nM, and the detection was performed by replicate wells. Alternatively, compounds were 3-fold serial diluted from 10 µM for 10 concentrations in replicate wells.
(§2) The inhibitory effects of the compounds on JAK1, JAK2, JAK3, CDK7 and CDK9 kinases were detected by the method of Caliper mobility shift assay. 250 nL of the compound at 100-fold final concentration was transferred to a destination plate 384-well-plate by using a liquid handler Echo 550. A kinase solution at 2.5-fold final concentration was prepared with 1×kinase buffer. 10 µL of the kinase solution with 2.5-fold final concentration was added to compound wells and positive control wells; and 10 µL of 1×kinase buffer was added to negative control wells. The mixture was centrifuged at 1000 rpm for 30 seconds and then incubated at room temperature for 10 minutes. A mixed solution of ATP and kinase substrate at 5/3-fold final concentration was prepared with 1×kinase buffer, and 15 µL of the mixed solution of ATP and substrate at 5/3-fold final concentration was added to start the reaction. The 384-well plate was centrifuged at 1000 rpm for 30 seconds, shaked and mixed evenly, then incubated at room temperature for a corresponding time. 30 µL of stop solution was added to stop the kinase reaction, the mixture was centrifuged at 1000 rpm for 30 seconds, and shaked and mixed evenly. The conversion rate was read by Caliper EZ Reader. The conversion inhibition rate%=(average positive control conversion rate%-sample conversion rate%)/(average positive control conversion rate%-average negative control conversion rate%). Where negative control wells represent the conversion readings of the background well of kinase buffer; and positive control wells represent the conversion readings of wells without compound inhibition. With the log value of concentration as the x axis and the percentage inhibition rate as the y axis, the dose-response curve was fitted by the log (inhibitor) vs. response-variable slope of the analyzing softwar GraphPad Prism 5, and the IC50 values of each compound on enzyme activity were obtained. Calculation formula is as follows: y=Bottom+(Top-Bottom)/(1+10^((LogIC50-x)×hillslope)), where x is logarithm of inhibitor concentration; and Y is % inhibition rate.

JAK2 = JAK2 (Homo sapiens, UniProt O60674); test: experiment of inhibiting kinase activity (Caliper mobility shift assay), JAK2; settings: for inhibition at 0.01 µM: at 10 nM; for inhibition at 0.01 µM / inhibition at 0.1 µM: read-out: inhibition rate JAK2; for inhibition at 0.1 µM: at 100 nM; for IC50: kinase activity assay, Table 3
Description: as §1, §2

JAK3 = target: T1, JAK3 (Homo sapiens, UniProt P52333); test: experiment of inhibiting kinase activity (Caliper mobility shift assay), JAK3; settings: for inhibition at 0.01 µM: at 10 nM
T1 sequence (P52333 1-1124): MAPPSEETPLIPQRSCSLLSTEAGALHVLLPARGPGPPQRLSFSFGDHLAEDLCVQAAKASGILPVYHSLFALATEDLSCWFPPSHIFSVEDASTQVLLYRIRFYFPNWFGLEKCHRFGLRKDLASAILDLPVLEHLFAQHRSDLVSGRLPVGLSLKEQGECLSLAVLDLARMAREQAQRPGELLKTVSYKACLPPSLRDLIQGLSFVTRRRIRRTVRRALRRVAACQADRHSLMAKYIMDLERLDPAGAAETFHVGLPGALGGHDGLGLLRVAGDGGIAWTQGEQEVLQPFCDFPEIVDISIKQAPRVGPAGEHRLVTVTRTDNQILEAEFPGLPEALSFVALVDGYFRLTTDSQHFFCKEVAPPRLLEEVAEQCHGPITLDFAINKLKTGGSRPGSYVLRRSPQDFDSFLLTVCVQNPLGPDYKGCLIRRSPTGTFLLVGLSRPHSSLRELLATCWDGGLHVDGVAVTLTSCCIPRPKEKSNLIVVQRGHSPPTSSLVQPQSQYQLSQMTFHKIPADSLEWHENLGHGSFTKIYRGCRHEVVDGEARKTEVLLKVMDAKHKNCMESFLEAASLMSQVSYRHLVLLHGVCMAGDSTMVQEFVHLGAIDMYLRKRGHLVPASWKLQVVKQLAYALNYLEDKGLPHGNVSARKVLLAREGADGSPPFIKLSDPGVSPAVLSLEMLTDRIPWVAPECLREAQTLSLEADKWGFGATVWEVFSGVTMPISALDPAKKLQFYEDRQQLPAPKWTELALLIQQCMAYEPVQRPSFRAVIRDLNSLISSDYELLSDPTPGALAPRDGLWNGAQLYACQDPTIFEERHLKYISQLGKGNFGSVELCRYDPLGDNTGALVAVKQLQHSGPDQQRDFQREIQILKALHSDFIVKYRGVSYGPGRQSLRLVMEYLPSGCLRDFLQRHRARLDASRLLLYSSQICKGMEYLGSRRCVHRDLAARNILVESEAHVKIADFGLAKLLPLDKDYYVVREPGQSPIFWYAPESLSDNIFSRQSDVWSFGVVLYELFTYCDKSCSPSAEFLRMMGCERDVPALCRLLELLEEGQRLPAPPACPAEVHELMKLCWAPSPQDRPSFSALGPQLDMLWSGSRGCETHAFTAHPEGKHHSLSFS
Description: as §1, §2

TYK2 = TYK2 (Homo sapiens, UniProt P29597); test: experiment of inhibiting kinase activity, TYK2; settings: read-out: inhibition rate TYK2; for inhibition at 0.01 µM: at 10 nM
Description: as §1

LRRK2 = LRRK2 (Homo sapiens, UniProt Q5S007); test: experiment of inhibiting kinase activity, LRRK2; settings: for inhibition at 0.01 µM: at 10 nM; for inhibition at 0.01 µM / inhibition at 0.1 µM: read-out: inhibition rate LRRK2; for inhibition at 0.1 µM: at 100 nM; for IC50: kinase activity assay, Table 3
Description: as §1

TYK2, sequence (P29597 whole entry): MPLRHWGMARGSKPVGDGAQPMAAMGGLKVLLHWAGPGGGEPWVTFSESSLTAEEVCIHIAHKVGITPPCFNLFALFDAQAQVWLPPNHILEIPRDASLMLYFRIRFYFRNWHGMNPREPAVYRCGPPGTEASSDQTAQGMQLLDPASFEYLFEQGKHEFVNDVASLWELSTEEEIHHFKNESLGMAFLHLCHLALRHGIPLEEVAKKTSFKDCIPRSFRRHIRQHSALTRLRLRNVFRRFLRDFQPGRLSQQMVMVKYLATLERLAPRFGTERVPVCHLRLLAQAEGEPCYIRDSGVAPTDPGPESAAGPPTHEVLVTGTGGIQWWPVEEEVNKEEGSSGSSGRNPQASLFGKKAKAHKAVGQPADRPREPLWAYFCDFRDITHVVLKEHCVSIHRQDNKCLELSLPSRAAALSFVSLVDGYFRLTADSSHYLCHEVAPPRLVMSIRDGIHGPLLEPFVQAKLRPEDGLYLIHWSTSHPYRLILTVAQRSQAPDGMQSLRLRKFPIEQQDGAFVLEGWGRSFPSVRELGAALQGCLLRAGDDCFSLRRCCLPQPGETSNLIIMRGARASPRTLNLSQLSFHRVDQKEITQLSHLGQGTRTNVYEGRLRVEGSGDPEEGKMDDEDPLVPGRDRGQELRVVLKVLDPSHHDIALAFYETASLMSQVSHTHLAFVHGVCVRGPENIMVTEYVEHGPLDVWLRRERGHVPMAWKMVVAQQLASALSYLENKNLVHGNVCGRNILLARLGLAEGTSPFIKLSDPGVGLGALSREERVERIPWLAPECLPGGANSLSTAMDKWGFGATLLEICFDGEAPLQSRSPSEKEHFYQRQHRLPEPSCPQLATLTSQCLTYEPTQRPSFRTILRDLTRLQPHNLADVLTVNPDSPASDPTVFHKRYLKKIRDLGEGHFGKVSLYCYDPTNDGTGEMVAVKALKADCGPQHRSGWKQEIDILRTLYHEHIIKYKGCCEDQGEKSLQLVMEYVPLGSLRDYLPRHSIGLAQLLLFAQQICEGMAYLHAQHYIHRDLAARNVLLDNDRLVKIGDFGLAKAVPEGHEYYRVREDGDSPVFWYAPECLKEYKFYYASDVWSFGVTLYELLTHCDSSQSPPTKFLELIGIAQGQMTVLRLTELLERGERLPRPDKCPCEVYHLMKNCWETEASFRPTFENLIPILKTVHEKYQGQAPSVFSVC
JAK1, sequence (P23458 whole entry): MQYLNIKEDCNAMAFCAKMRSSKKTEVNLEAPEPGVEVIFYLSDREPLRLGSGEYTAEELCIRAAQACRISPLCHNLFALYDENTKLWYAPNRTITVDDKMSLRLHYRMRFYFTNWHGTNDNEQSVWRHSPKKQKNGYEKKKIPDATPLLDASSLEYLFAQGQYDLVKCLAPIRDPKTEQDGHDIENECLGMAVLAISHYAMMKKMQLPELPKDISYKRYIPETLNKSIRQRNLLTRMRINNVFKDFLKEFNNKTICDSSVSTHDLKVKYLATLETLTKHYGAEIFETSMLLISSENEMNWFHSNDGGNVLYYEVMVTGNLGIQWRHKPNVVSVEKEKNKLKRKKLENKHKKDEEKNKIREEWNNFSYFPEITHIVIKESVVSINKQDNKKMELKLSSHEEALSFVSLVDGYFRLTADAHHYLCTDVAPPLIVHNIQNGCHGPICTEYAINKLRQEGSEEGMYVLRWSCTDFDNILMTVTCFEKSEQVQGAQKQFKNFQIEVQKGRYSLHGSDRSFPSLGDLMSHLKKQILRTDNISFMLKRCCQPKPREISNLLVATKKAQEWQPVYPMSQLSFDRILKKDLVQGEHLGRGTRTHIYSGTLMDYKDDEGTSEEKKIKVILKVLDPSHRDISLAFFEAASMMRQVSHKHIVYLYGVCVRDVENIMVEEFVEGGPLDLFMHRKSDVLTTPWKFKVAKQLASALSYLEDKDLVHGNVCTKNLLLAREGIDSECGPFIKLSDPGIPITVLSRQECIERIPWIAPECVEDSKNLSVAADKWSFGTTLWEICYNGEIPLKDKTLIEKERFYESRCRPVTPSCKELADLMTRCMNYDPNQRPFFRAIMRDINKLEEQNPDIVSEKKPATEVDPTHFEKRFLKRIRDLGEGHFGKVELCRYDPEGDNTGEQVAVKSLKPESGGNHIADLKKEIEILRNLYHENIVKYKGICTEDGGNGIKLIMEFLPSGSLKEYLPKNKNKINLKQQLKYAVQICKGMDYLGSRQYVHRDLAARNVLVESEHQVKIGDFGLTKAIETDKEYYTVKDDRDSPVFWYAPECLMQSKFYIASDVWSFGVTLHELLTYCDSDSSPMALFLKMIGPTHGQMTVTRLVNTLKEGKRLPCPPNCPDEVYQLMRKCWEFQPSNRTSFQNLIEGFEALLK
JAK2, sequence (O60674 whole entry): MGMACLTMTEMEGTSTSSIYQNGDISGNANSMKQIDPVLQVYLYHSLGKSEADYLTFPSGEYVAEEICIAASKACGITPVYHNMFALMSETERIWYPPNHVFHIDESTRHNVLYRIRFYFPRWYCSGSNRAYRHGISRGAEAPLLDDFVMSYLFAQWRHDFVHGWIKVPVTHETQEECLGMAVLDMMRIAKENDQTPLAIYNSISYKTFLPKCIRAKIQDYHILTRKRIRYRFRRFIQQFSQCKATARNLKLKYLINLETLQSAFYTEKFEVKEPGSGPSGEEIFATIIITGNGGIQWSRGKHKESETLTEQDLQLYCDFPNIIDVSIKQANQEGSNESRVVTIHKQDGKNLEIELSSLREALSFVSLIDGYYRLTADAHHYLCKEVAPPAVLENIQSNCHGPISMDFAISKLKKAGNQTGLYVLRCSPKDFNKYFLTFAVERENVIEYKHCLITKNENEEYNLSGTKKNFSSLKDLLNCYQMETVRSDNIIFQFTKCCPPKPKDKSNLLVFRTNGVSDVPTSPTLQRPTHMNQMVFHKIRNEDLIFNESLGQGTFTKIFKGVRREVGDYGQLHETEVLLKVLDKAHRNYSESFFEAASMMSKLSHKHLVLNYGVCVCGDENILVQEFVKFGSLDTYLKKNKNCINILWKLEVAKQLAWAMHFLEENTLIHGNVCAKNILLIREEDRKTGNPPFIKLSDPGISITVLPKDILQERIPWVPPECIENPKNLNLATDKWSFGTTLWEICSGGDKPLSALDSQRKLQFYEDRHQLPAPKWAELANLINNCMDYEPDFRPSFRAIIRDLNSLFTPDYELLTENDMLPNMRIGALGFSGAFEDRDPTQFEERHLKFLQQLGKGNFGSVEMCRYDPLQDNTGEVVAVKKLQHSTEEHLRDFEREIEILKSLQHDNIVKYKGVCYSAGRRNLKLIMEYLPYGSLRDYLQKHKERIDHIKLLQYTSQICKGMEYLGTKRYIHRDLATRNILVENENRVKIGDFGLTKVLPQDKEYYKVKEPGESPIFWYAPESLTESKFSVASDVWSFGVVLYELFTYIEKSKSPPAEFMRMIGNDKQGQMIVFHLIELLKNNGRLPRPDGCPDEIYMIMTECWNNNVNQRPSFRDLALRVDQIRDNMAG

CN1CCOCCOc2cc(Nc3nc(-c4cnn([C@H](CC#N)C5CCCC5)c4)c4cc[nH]c4n3)ccc2OCC1 [Example 74, (R)-3-cyclopentyl-3-(4-(2-((7-methyl-2,3,6,7,8,9-hexahydro-5H-benzo[b][1,4,7]trioxa[10]azacyclododecan-13-yl)amino)-7H-pyrrolo[2,3-d]pyrimidin-4-yl)-1H-pyrazol-1-yl) propionitrile] was tested, and the inhibition at 0.01 µM (JAK1) was 25 to 39%, the inhibition at 0.01 µM (JAK2) was greater than 80% and the inhibition at 0.01 µM (JAK3; read-out: inhibition rate JAK3) was greater than 80%. For the same compound, the inhibition at 0.01 µM (TYK2) was greater than 80% and the inhibition at 0.01 µM (LRRK2) was 40 to 79%.

CN1CCOc2ccc(Nc3nc(-c4cnn(C5CN(S(C)(=O)=O)C5)c4)c4cc[nH]c4n3)cc2OCC1 [Example 69, 4-methyl-N-(4-(1-(1-(methylsulfonyl)azetidin-3-yl)-1H-pyrazol-4-yl)-7H-pyrrolo [2,3-d]pyrimidin-2-yl)-3,4,5,6-tetrahydro-2H-benzo[b][1,4,7]dioxazolin-9-amine] gave an inhibition at 0.01 µM (JAK2) of 40 to 79%, an inhibition at 0.01 µM (JAK3; read-out: inhibition rate JAK3) of 25 to 39% and an inhibition at 0.01 µM (LRRK2) of 25 to 39%.

Compound CN1CCOCCOc2cc(Nc3nc(-c4cnn(S(C)(=O)=O)c4)c4cc[nH]c4n3)ccc2OCC1 [Example 63, 7-methyl-N-(4-(1-(methylsulfonyl)-1H-pyrazol-4-yl)-7H-pyrrolo[2,3-d]pyrimidin-2-yl)-2,3,6,7,8,9-hexahydro-5H-benzo[b][1,4,7]trioxa[10]azacyclododecan-13-amine] has an inhibition at 0.01 µM (JAK2) of 40 to 79% and an inhibition at 0.01 µM (LRRK2) of 40 to 79%.

CN1CCOc2ccc(Nc3ncc(F)c(-c4cn(C)c5ccccc45)n3)cc2OCC1 [Example 13, N-(5-fluoro-4-(1-methyl-1H-indol-3-yl)pyrimidin-2-yl)-4-methyl-3,4,5,6-tetrahydro-2H -benzo[b][1,4,7]bisoxazolin-9-amine] showed an inhibition at 0.1 µM (JAK2) of 40 to 79%, an IC50 (JAK2) of less than 50 nM and an IC50 (JAK3; kinase activity assay, Table 3) of 50 to 200 nM. The inhibition at 0.1 µM (TYK2; at 100 nM) was 25 to 39%, the inhibition at 0.1 µM (LRRK2) was 40 to 79% and the IC50 (LRRK2) was 50 to 200 nM.

Work on CN1CCOCCOc2ccc(Nc3ncc(F)c(-c4cn(C)c5ccccc45)n3)cc2OCC1 [Example 41, N-(5-fluoro-4-(1-methyl-1H-indol-3-yl)pyrimidin-2-yl)-7-methyl-2,3,6,7,8,9-hexahydro-5H-benzo[b][1,4,7]trioxa[10]azacyclododecan-12-amine] yielded an inhibition at 0.01 µM (JAK2) of 40 to 79% and an inhibition at 0.01 µM (JAK3; read-out: inhibition rate JAK3) of 25 to 39%.

Compound CN1CCOc2ccc(Nc3nc(Nc4cccc(S(=O)(=O)NC(C)(C)C)c4)c4cc[nH]c4n3)cc2OCC1 [Example 21, N-(tert-butyl)-3-((2-((4-methyl-3,4,5,6-tetrahydro-2H-benzo[b][1,4,7]dioxazolin-9-yl)amino)-7H-pyrrolo[2,3-d]pyrimidin-4-yl)amino)benzenesulfonamide] has an inhibition at 0.1 µM (JAK2) of 40 to 79%, an IC50 (JAK2) of less than 50 nM and an inhibition at 0.1 µM (LRRK2) of 40 to 79%. It also gave an IC50 (LRRK2) of 50 to 200 nM.

With CNc1nc(Nc2ccc3c(c2)OCCN(C)CCO3)nc2[nH]ccc12 [Example 64, N^4-methyl-N^2-(4-methyl-3,4,5,6-tetrahydro-2H-benzo[b][1,4,7]dioxazolin-9-yl)-7H-pyrrolo[2,3-d]pyrimidin-2,4-diamine] the inhibition at 0.1 µM (JAK2) was 25 to 39% and the inhibition at 0.1 µM (LRRK2) was greater than 80%.

In the case of CN1CCOc2ccc(Nc3ncc(Cl)c(Nc4cccc(NC(=O)[C@H]5C[C@H](N)C5)c4)n3)cc2OCC1 [Example 72, (1r,3r)-3-amino-N-(3-((5-chloro-2-((4-methyl-3,4,5,6-tetrahydro-2H-benzo[b][1,4,7]dioxazolin-9-yl)amino)pyrimidin-4-yl)amino)phenyl)cyclobutan-1-carboxamide], the inhibition at 0.01 µM (JAK1) is reported as 25 to 39% and the inhibition at 0.01 µM (JAK2) is reported as 40 to 79%.

With CN1CCOc2ccc(Nc3nc(N4C[C@H]5CC[C@@H](C4)N5C(=O)C4CC4)c4cc[nH]c4n3)cc2OCC1 [Example 79, cyclopropyl((1R,5S)-3-(2-((4-methyl-3,4,5,6-tetrahydro-2H-benzo[b][1,4,7]dioxazolin-9-yl)amino)-7H-pyrrolo[2,3-d]pyrimidin-4-yl)-3,8-diazabicyclo[3.2.1]octan-8-yl)methanone] the inhibition at 0.01 µM (JAK1) was 40 to 79%, the inhibition at 0.01 µM (JAK2) was greater than 80% and the inhibition at 0.01 µM (TYK2) was greater than 80%. For the same compound, the inhibition at 0.01 µM (LRRK2) was 40 to 79%.

Work on CN1CCOc2ccc(Nc3ncc(F)c(Nc4cccc(S(=O)(=O)NC(C)(C)C)c4)n3)cc2OCC1 [Example 1, N-(tert-butyl)-3-((5-fluoro-2-((4-methyl-3,4,5,6-tetrahydro-2H-benzo[b][1,4,7]dioxazolin-9-yl)amino)pyrimidin-4-yl)amino)benzsulfamide] yielded an inhibition at 0.1 µM (JAK1; at 100 nM) of 25 to 39%, an inhibition at 0.01 µM (JAK2) of 40 to 79% and an inhibition at 0.1 µM (JAK2) greater than 80%. For the same compound, the IC50 (JAK2) was less than 50 nM and the inhibition at 0.1 µM (JAK3; at 100 nM, read-out: inhibition rate JAK3) was 25 to 39%.

CCS(=O)(=O)N1CC(CC#N)(n2cc(-c3nc(Nc4ccc5c(c4)OCCN(C)CCOCCO5)nc4[nH]ncc34)cn2)C1 [Example 50, 2-(1-(ethylsulfonyl)-3-(4-(6-((7-methyl-2,3,6,7,8,9-hexahydro-5H-benzo[b][1,4,7]trioxa[10]azacyclododecan-12-yl)amino)-1H-pyrazolo[3,4-d]pyrimidin-4-yl)-1H-pyrazol-1-y 1)azetidin-3-yl)acetonitrile] gave an inhibition at 0.01 µM (JAK2) greater than 80% and an inhibition at 0.01 µM (TYK2) of 25 to 39%.

With CCS(=O)(=O)N1CC(CC#N)(n2cc(-c3nc(Nc4ccc5c(c4)OCCN(C)CCOCCO5)ncc3F)cn2)C1 [Example 43, 2-(1-(ethylsulfonyl)-3-(4-(5-fluoro-2-((7-methyl-2,3,6,7,8,9-hexahydro-5H-benzo[b][1,4,7]trioxa[10]azacyclododecan-12-yl)amino)pyrimidin-4-yl)-1H-pyrazol-1-yl)azetidin-3-yl) acetonitrile] the inhibition at 0.01 µM (JAK2) was greater than 80%, the inhibition at 0.01 µM (JAK3; read-out: inhibition rate JAK3) was 25 to 39% and the inhibition at 0.01 µM (TYK2) was 40 to 79%. For the same compound, the inhibition at 0.01 µM (LRRK2) was 25 to 39%.

Work on CN1CCOCCOc2cc(Nc3nc(Nc4ccccc4NS(C)(=O)=O)c4cc[nH]c4n3)ccc2OCC1 [Example 61, N-(2-((2-((7-methyl-2,3,6,7,8,9-hexahydro-5H-benzo[b][1,4,7]trioxa[10]azacyclododecan-13-yl)amino)-7H-pyrrolo[2,3-d]pyrimidin-4-yl)amino)phenyl)methanesulfonamide] yielded an inhibition at 0.01 µM (JAK2) of 40 to 79%, an inhibition at 0.01 µM (JAK3; read-out: inhibition rate JAK3) of 40 to 79% and an inhibition at 0.01 µM (LRRK2) greater than 80%. The IC50 (LRRK2) was less than 50 nM.

Source: patent EP4592286A1, “MACROCYCLIC NITROGEN-CONTAINING CROWN ETHER COMPOUND AND USE THEREOF AS PROTEIN KINASE INHIBITOR” (Artivila Biopharma, priority 2022, dated 2024)
